Reference: patent US20240368092A1, “2,4-Dihydro-3H-1,2,4-Triazol-3-One P2X7 Antagonists” (Breye Therapeutics ApS, priority 2021, published 2024)

Tests used:
Format in all cases: cell-based
human P2X7 channel = biological target: T1, human P2X7 channel (Homo sapiens, UniProt Q99572); assay: human P2X7 channel assay by automated patch-clamp (QPatch 16X); settings: HEK-293 cells expressing P2X7; current evoked by 100 microM BzATP; whole-cell, held at -80 mV; read-out: human Q-Patch (activity range)
T1 construct: expressed in transfected cells; host or cells: HEK-293
T1 sequence (Q99572 1-595): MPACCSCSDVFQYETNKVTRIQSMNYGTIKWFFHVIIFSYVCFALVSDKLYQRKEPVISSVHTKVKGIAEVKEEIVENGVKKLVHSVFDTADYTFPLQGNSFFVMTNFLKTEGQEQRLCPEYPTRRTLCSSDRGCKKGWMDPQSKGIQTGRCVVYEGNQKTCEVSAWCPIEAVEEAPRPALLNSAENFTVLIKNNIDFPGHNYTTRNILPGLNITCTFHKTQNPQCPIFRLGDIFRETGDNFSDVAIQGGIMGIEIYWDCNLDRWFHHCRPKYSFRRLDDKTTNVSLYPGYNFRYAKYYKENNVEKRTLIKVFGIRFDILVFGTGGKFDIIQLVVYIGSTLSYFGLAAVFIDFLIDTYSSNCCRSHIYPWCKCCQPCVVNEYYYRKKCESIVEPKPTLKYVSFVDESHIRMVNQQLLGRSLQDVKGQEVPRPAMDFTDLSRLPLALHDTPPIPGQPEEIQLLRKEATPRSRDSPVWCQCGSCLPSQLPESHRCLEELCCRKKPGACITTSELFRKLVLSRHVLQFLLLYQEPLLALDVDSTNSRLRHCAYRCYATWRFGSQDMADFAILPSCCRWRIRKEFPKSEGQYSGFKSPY
Procedure, shortened: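 Whole-cell patch clamp on HEK-293 cells expressing P2X7, room temperature, held at −80 mV, CsF internal and NaCl external (pH 7.4). Currents evoked by 100 microM BzATP, four controls then with compound at 1, 10, 100 and 1000 nM; peak inward current normalized, IC50 from dose-response fit, reported as potency bins.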

humanP2X7 = biological target: T2, humanP2X7 (Homo sapiens, UniProt Q99572); assay: P2X7 channel calcium-influx assay (Fluo-8, FLIPR TETRA), human P2X7; settings: HEK-293 cells stably transfected with P2X7; Bz-ATP at EC80; low divalent cation buffer; read-out: humanP2X7 (activity range)
T2 construct: expressed in transfected cells; host or cells: HEK-293
T2 sequence (Q99572 1-595): T1 sequence (Q99572 1-595)
Procedure, shortened: (§1)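 HEK-293 cells stably expressing the respective species' P2X7, Fluo-8 NW loaded 1 h at RT in low divalent buffer (0.3 mM Ca2+, 0 mM Mg2+). Compound preincubated 5 min, then Bz-ATP at EC80; FLIPR calcium influx over 3 min. IC50 from % inhibition relative to reference antagonist A438079, reported as potency bins.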

mouseP2X7 = biological target: T3, mouseP2X7 (Mus musculus, UniProt Q9Z1M0); assay: P2X7 channel calcium-influx assay (Fluo-8, FLIPR TETRA), mouse P2X7; settings: HEK-293 cells stably transfected with P2X7; Bz-ATP at EC80; low divalent cation buffer; read-out: mouseP2X7 (activity range)
T3 construct: expressed in transfected cells; host or cells: HEK-293
T3 sequence (Q9Z1M0 1-595): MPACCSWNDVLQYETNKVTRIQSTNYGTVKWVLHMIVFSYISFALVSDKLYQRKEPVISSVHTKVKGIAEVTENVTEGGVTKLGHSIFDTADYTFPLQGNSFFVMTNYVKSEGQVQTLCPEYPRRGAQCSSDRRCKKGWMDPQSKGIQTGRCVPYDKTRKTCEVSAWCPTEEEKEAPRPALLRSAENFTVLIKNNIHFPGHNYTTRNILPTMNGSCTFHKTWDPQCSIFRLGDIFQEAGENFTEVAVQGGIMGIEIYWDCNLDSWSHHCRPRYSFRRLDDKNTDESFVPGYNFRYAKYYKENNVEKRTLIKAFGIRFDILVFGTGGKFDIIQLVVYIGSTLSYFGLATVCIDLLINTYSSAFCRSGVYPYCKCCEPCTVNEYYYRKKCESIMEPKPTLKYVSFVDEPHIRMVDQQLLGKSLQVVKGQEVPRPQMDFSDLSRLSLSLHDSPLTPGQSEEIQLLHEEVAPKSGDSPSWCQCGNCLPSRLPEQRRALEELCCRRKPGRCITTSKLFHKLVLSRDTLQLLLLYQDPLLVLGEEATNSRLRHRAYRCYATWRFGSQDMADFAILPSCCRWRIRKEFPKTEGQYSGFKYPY
Procedure, shortened: as §1

ratP2X7 = biological target: T4, ratP2X7 (Rattus norvegicus, UniProt Q64663); assay: P2X7 channel calcium-influx assay (Fluo-8, FLIPR TETRA), rat P2X7; settings: HEK-293 cells stably transfected with P2X7; Bz-ATP at EC80; low divalent cation buffer; read-out: ratP2X7 (activity range)
T4 construct: expressed in transfected cells; host or cells: HEK-293
T4 sequence (Q64663 1-595): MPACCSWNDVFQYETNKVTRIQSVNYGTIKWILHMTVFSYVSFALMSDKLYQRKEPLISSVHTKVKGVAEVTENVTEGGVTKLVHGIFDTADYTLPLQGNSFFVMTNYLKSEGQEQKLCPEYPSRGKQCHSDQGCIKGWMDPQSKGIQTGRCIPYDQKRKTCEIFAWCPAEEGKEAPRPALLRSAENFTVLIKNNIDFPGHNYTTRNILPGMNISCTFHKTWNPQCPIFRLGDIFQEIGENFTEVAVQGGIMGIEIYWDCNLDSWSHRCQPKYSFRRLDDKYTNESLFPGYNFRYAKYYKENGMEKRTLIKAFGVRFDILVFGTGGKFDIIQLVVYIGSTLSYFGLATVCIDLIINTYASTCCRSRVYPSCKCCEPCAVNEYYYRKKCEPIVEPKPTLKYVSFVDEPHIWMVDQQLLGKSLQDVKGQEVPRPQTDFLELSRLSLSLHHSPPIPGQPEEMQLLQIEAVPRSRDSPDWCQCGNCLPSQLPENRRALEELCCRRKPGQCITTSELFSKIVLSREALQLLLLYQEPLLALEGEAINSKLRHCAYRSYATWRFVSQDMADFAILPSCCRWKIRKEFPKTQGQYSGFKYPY
Procedure, shortened: as §1

| IC50 (human P2X7 channel) [nM] | IC50 (humanP2X7) [nM] | IC50 (mouseP2X7) [nM] | IC50 (ratP2X7) [nM] | SMILES |
| --- | --- | --- | --- | --- |
| 100 to 1000 | 200 to 1000 | 1000 to 10000 | < 200 | O=c1n(CC(F)(F)F)nc(CC2CCCCCC2)n1Cc1c(F)cccc1Cl [Example 61, 4-[(2-chloro-6-fluorophenyl)methyl]-5-(cycloheptylmethyl)-2-(2,2,2-trifluoroethyl)-2,4-dihydro-3H-1,2,4-triazol-3-one] |
| 10 to 100 | 200 to 1000 | 1000 to 10000 | 200 to 1000 | Cn1nc(Cc2c(F)cccc2Cl)n(CCC2CCC(C)(C)CC2)c1=O [Example 16, 5-(2-chloro-6-fluorobenzyl)-4-(2-(4,4-dimethylcyclohexyl)ethyl)-2-methyl-2,4-dihydro-3H-1,2,4-triazol-3-one] |
| 10 to 100 | < 200 | 1000 to 10000 | < 200 | Cn1nc(Cc2ccccc2C(F)(F)F)n(CC2CCC(F)(F)CC2)c1=O [Example 18, 4-((4,4-difluorocyclohexyl)methyl)-2-methyl-5-(2-(trifluoromethyl)benzyl)-2,4-dihydro-3H-1,2,4-triazol-3-one] |
| 100 to 1000 | 200 to 1000 | 200 to 1000 | < 200 | Cn1nc(Cc2ccccc2F)n(CC2CCCCCC2)c1=O [Example 37, 4-(cycloheptylmethyl)-5-(2-fluorobenzyl)-2-methyl-2,4-dihydro-3H-1,2,4-triazol-3-one] |
| 100 to 1000 | 200 to 1000 | 1000 to 10000 | < 200 | Cn1nc(Cc2ccc(F)cc2Cl)n(CC2CCC3(CC2)CC3)c1=O [Example 35, 5-(2-chloro-4-fluorobenzyl)-2-methyl-4-(spiro[2.5]octan-6-ylmethyl)-2,4-dihydro-3H-1,2,4-triazol-3-one] |
| 1000 to 10000 | 1000 to 10000 | 1000 to 10000 | < 200 | Cn1nc(Cc2ccccc2F)n(CC2CCCCC2(C)C)c1=O (stereo not drawn) [Example 32, 4-((2,2-dimethylcyclohexyl)methyl)-5-(2-fluorobenzyl)-2-methyl-2,4-dihydro-3H-1,2,4-triazol-3-one] |
| 100 to 1000 | 1000 to 10000 | 10000 to 30000 | 200 to 1000 | Cn1nc(Cc2ccccc2C(F)(F)F)n(CC2CCC(F)(F)C2)c1=O (stereo not drawn) [Example 19, 4-((3,3-difluorocyclopentyl)methyl)-2-methyl-5-(2-(trifluoromethyl)benzyl)-2,4-dihydro-3H-1,2,4-triazol-3-one] |
| 10 to 100 | 200 to 1000 | 1000 to 10000 | < 200 | Cn1nc(Cc2c(F)cccc2Cl)n(CC2CC3C(C2)C3(F)F)c1=O (stereo not drawn) [Example 5, 5-(2-chloro-6-fluorobenzyl)-4-((6,6-difluorobicyclo[3.1.0]hexan-3-yl)methyl)-2-methyl-2,4-dihydro-3H-1,2,4-triazol-3-one] |
| 10 to 100 | < 200 | 200 to 1000 | < 200 | Cn1nc(Cc2ccc(F)cc2Cl)n(CC2CCCCCC2)c1=O [Example 11, 5-(2-chloro-4-fluorobenzyl)-4-(cycloheptylmethyl)-2-methyl-2,4-dihydro-3H-1,2,4-triazol-3-one] |
| 1000 to 10000 | 200 to 1000 | 10000 to 30000 | 1000 to 10000 | Cn1nc(Cc2ccc(F)cc2Cl)n(CCC2CCC(C)(C)CC2)c1=O [Example 41, 5-(2-chloro-4-fluorobenzyl)-4-(2-(4,4-dimethylcyclohexyl)ethyl)-2-methyl-2,4-dihydro-3H-1,2,4-triazol-3-one] |
| 100 to 1000 | 200 to 1000 | 1000 to 10000 | < 200 | Cn1nc(Cc2ccccc2F)n(CC2CCC(F)(F)CC2)c1=O [Example 26, 4-((4,4-difluorocyclohexyl)methyl)-5-(2-fluorobenzyl)-2-methyl-2,4-dihydro-3H-1,2,4-triazol-3-one] |
| 100 to 1000 | 200 to 1000 | 1000 to 10000 | < 200 | Cn1nc(Cc2ccccc2Cl)n(CC2CCCCCC2)c1=O [Example 55, 5-[(2-chlorophenyl)methyl]-4-(cycloheptylmethyl)-2-methyl-2,4-dihydro-3H-1,2,4-triazol-3-one] |
| < 10 | < 200 | < 200 | < 200 | O=c1n(CC(F)(F)F)nc(Cc2c(F)cccc2Cl)n1CC1CCC(F)(F)CC1 [Example 44, 5-(2-chloro-6-fluorobenzyl)-4-((4,4-difluorocyclohexyl)methyl)-2-(2,2,2-trifluoroethyl)-2,4-dihydro-3H-1,2,4-triazol-3-one] |
| 10 to 100 | < 200 | 200 to 1000 | < 200 | Cn1nc(Cc2c(F)cccc2Cl)n(CC2CCCCC2(C)C)c1=O (stereo not drawn) [Example 33, 5-(2-chloro-6-fluorobenzyl)-4-((2,2-dimethylcyclohexyl)methyl)-2-methyl-2,4-dihydro-3H-1,2,4-triazol-3-one] |
| 1000 to 10000 | 1000 to 10000 | 10000 to 30000 | 1000 to 10000 | CN1CCCCC1Cn1c(Cc2c(F)cccc2Cl)nn(C)c1=O (stereo not drawn) [Example 21, 5-(2-chloro-6-fluorobenzyl)-2-methyl-4-((1-methylpiperidin-2-yl)methyl)-2,4-dihydro-3H-1,2,4-triazol-3-one] |
| 100 to 1000 | 200 to 1000 | 1000 to 10000 | 200 to 1000 | Cn1nc(Cc2ccccc2C(F)(F)F)n(CCC2CCC(F)(F)CC2)c1=O [Example 39, 4-(2-(4,4-difluorocyclohexyl)ethyl)-2-methyl-5-(2-(trifluoromethyl)benzyl)-2,4-dihydro-3H-1,2,4-triazol-3-one] |
| 10 to 100 | < 200 | 200 to 1000 | < 200 | O=c1n(CC2CC2)nc(Cc2c(F)cccc2Cl)n1CC1CCC(C(F)(F)F)CC1 (stereo not drawn) [Example 69, 5-(2-chloro-6-fluorobenzyl)-2-(cyclopropylmethyl)-4-((4-(trifluoromethyl)cyclohexyl)methyl)-2,4-dihydro-3H-1,2,4-triazol-3-one] |
| 1000 to 10000 | 1000 to 10000 | 10000 to 30000 | 200 to 1000 | CCn1nc(Cc2c(F)cccc2Cl)n(CC2CCC(F)(F)C2)c1=O (stereo not drawn) [Example 65, 5-[(2-chloro-6-fluorophenyl)methyl]-4-[(3,3-difluorocyclopentyl)methyl]-2-ethyl-2,4-dihydro-3H-1,2,4-triazol-3-one] |
